# From patent US20230218559A1, “Compositions and Methods for Treating Aging and Age-Related Diseases and Symptoms” (The Regents of the University of California, priority 2014, published 2023)
# Tests used:
# Complex V = target: T1, Complex V (Bos taurus, UniProt P00829); experiment: Complex V activity assay (MitoTox OXPHOS kit); assay type: biochemical, bovine
# T1 construct: from bovine heart mitochondria; purchased Abcam ab109907; host or cells: bovine heart mitochondria
# Method: Complex V activity was assayed using the MitoTox OXPHOS Complex V Activity Kit (Abcam, ab109907). Vehicle (H2O) or α-KG was mixed with the enzyme prior to the addition of phospholipids. […] Relative Complex V activity was compared to vehicle. Oligomycin (Sigma, O4876) was used as a positive control for the assay.
# WI-38 cells = experiment: Assay for ATP levels in normal human fibroblasts; assay type: cell-based; conditions: 2 hours
# Method: Normal human diploid fibroblast WI-38 (ATCC, CCL-75) cells were seeded in 96-well plates at 2×10^4 cells per well. […] ATP levels were measured using the CellTiter-Glo luminescent ATP assay (Promega, G7572); luminescence was read using Analyst HT (Molecular Devices). In parallel, identically treated cells were lysed in M-PER (Thermo Scientific, 78501) to obtain protein concentration by BCA Protein Assay kit (Pierce, 23223). ATP levels were normalized to protein content. Statistical analysis was performed using GraphPad Prism (unpaired t-test).
# U87 cells [1] = experiment: Assay for ATP levels in U87 cells; assay type: cell-based, human; conditions: mitochondrial oxidative phosphorylation conditions, 2 hours
# Method: For 2-HG experiments, U87 cells were seeded in 96-well plates at 2×10^4 cells per well and treated with indicated compound for 2 hours in triplicate. ATP levels were measured using the CellTiter-Glo luminescent ATP assay (Promega, G7572); luminescence was read using Analyst HT (Molecular Devices). […] Statistical analysis was performed using GraphPad Prism (unpaired t-test).
# mammalian cells = experiment: Oxygen consumption rate in cells (Seahorse XF-24); assay type: cell-based; conditions: treated cells, 1 hour
# Method: OCR measurements were made using a Seahorse XF-24 analyzer (Seahorse Bioscience) (Wu, et al. Am J Physiol Cell Physiol 292, C125-136 (2007)). […] Oxygen consumption rates were measured 3 times under basal conditions and normalized to protein concentration per well. Statistical analysis was performed using GraphPad Prism.
# ATP synthase = target: T2, ATP synthase (Mus musculus, UniProt P56480); experiment: ATP synthase enzyme inhibition kinetics; assay type: biochemical
# T2 construct: Mitochondria were isolated from mouse liver as described above; from tissue; host or cells: isolated mouse liver mitochondria
# Method: ATP synthesis enzyme inhibition kinetic analysis was performed using isolated mitochondria. Mitochondria were isolated from mouse liver as described above. The final mitochondrial pellet was resuspended in MAS buffer supplemented with 5 mM sodium ascorbate (Sigma, A7631) and 5 mM TMPD (Sigma, T7394).
# ATP synthesis was monitored by the increase in luminescence over time by a luminometer (Analyst HT, Molecular Devices). ATP synthase-independent ATP formation, derived from the oligomycin-insensitive luminescence, was subtracted as background. The initial velocity of ATP synthesis was calculated from the slope of the first 3 minutes of the reaction, before the velocity begins to decrease. Enzyme inhibition kinetics was analyzed by nonlinear regression least squares fit using GraphPad Prism.
# mTOR [2] = experiment: Assay for mammalian TOR (mTOR) pathway activity; assay type: cell-based, human; conditions: U87 cells
# Excerpt: Specific antibodies used: P-S6K T389 (Cell Signaling Technology, 9234), S6K (Cell Signaling Technology, 9202S), P-4E-BP1 S65 (Cell Signaling Technology, 9451S), 4E-BP1 (Cell Signaling Technology, 9452S), P-AKT S473 (Cell Signaling Technology, 4060S), AKT (Cell Signaling Technology, 4691S), P-ULK1 S757 (Cell Signaling Technology, 6888), ULK1 (Cell Signaling Technology, 4773S), and GAPDH (Santa Cruz Biotechnology, 25778).
# AMPK = AMPK (T172) phosphorylation by Western blotting; assay type: cell-based, human; conditions: WI-38 cells; higher concentration of octyl α-KG
# Method: Western blotting was performed with specific antibodies against P-AMPK T172 (Cell Signaling Technology, 2535S) and AMPK (Cell Signaling Technology, 2603S). […] Number of GFP::LGG-1 containing puncta was quantitated using ImageJ. Bars indicate the mean. […] HEK-293 (Panel d) or HeLa (Panel e) cells were lysed in M-PER buffer (Thermo Scientific, 78501) with the addition of protease inhibitors (Roche, 11836153001) and phosphatase inhibitors (50 mM NaF, 10 mM β-glycerophosphate, 5 mM sodium pyrophosphate, 2 mM Na3VO4). Protein concentration of the lysate was measured by BCA Protein Assay kit (Pierce, 23227). […] Pronase (Roche, 10165921001) digestions were performed for 20 minutes at room temperature, and stopped by adding SDS loading buffer and immediately heating at 95° C. for 5 minutes (for Panel d) or 70° C. for 10 minutes (for Panel e). Samples were subjected to SDS-PAGE on 4-12% Bis-Tris gradient gel (Invitrogen, NP0322BOX) and Western blotted with specific antibodies against ATP5B (Santa Cruz, sc58618), mTOR (Cell Signaling Technology, 2972), or GAPDH (Ambion, AM4300). ImageJ was used to quantify the mTOR/GAPDH and ATP5B/GAPDH ratios.
# [3] = tested on: neonatal rat cardiomyocytes; experiment: Isoproterenol/phenylephrine-induced hypertrophy in isolated neonatal cardiomyocytes; assay type: cell-based; conditions: 200 μM
# Method: Cardiomyocytes of neonatal rats were isolated by collagenase digestion and cultured overnight in DMEM containing 10% fetal calf serum (FCS), and then culture medium was changed to serum-free high glucose insulin-transferrin-sodium selenite (ITS). Hypertrophy of cardiomyocytes was induced by treating the cells with 1 mM isoproterenol (ISO) or phenylephrine (PE) for 48 hours.
# [4] = target: mitochondrial ATP synthase (Complex V) (Mus musculus, UniProt P56480); experiment: Mice fed octyl α-KG in chow; heart mitochondria OCR
# Method: The mice were sacrificed, hearts harvested, and mitochondria isolated. The oxygen consumption rate (OCR) was measured using a Seahorse XF-24 Analyzer (Seahorse Bioscience).
# DBA2/J female mice = experiment: Isoproterenol-induced hypertrophy and heart failure in mice; assay type: in vivo, mouse; conditions: ISO plus octyl α-KG, 3 weeks, echocardiography; ISO+octanol 49.2%±1.9
# Method: Hypertrophy and heart failure were induced by chronic infusion of isoproterenol for 3 weeks at a dose of 30 μg per gram bodyweight per day using osmotic mini-pumps (Alzet, model 1004). DBA2/J female mice at 8 weeks old were used for this study. […] ISO-induced cardiac hypertrophy and cardiomyopathy were determined at the end of experiment by assessing heart size and heart to body weight ratio.
# More importantly, cardiac output was assessed and the cardiac ejection fractions were determined by echocardiography. The cardiac EF for the basal levels before the treatment is 55.1%±2.6 (n=14).
# U87 cells [5] = experiment: Cell growth and viability assays in U87 cells; assay type: cell-based, human
# Method: IDH1(R132H) mutant or IDH1(WT) expressing U87 cells were as reported (Li, et al. Neuro Oncol 15, 57-68). […] All the cells were cultured at 37° C. and 5% CO2. Cells were transfected with indicated siRNA using Thermo Scientific DharmaFECT Transfection Reagent 1 by following the manufacturer's instructions.
# Cells were seeded in 12-well plates and after overnight incubation were treated with indicated concentrations of each compound. After harvesting, cells were stained by Acridine Orange (AO) and DAPI. Cell number and viability were measured based on AO and DAPI fluorescence measured by NC3000 (Chemometec) following the manufacturer's instructions.
# ATP5B = target: T3, ATP5B (Homo sapiens, UniProt P06576); experiment: DARTS (drug affinity responsive target stability) with Western blotting; assay type: binding; conditions: human cell lysates, Pronase digestion
# T3 construct: HeLa cells were lysed in M-PER buffer; endogenous in cells; host or cells: HeLa (alpha-KG); U87 (2-HG)
# T3 sequence (P06576 48-529): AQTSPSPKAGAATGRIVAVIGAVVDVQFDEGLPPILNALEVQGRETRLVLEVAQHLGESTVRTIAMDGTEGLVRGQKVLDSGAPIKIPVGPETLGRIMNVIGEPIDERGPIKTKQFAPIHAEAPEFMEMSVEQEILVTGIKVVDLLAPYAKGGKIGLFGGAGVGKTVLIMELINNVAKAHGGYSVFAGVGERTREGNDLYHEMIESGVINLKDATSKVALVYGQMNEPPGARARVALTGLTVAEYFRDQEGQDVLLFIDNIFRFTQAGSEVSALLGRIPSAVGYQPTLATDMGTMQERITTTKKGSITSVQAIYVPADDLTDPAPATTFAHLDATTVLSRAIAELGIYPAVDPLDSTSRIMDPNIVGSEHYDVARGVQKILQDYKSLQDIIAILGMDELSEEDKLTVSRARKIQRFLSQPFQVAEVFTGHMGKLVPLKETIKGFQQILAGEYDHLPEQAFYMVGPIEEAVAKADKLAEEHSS
# Method: Target identification using DARTS was conducted in accordance with methods know in the art. […] The resulting digests were separated by SDS-PAGE and visualized using SYPRO Ruby Protein Gel Stain (Invitrogen, S12000).
# GAPDH (Ambion, AM4300) was used as a negative control.
# For 2-HG experiments, DARTS was performed as described above.
# ATP-2 = target: T4, ATP-2 (Caenorhabditis elegans, UniProt P46561); experiment: DARTS using C. elegans lysate; assay type: binding; conditions: worm lysate
# T4 construct: from tissue; host or cells: lysate of whole wild-type C. elegans
# T4 sequence (P46561 whole entry): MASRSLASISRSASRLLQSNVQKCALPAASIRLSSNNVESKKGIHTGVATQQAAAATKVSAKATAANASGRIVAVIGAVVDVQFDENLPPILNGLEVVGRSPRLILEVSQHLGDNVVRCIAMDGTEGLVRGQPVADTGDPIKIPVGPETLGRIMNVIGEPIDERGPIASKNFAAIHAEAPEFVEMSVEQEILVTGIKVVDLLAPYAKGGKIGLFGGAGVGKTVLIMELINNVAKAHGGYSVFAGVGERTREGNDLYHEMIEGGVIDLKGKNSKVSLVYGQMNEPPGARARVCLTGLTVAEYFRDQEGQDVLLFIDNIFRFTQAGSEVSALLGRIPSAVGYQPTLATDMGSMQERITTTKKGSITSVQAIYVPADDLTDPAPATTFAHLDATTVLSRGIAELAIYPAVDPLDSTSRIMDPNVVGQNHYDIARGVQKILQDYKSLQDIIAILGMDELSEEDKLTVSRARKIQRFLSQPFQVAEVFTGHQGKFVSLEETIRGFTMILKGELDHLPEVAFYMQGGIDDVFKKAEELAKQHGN
# Method: For DARTS using C. elegans (FIG. 6, Panel a), wild-type animals of various ages were grown on NGM/OP50 plates, washed 4 times with M9 buffer, and immediately placed in the −80° C. freezer. […] All steps were performed on ice or at 4° C. to help prevent premature protein degradation. TNC buffer (50 mM Tris-HCl pH 8.0, 50 mM NaCl, 10 mM CaCl2) was added to the worm lysates.
# mTOR [6] = target: T5, mTOR (Homo sapiens, UniProt P42345); experiment: DARTS for TOR in HEK-293 / HeLa lysates; assay type: binding; conditions: HEK-293 or HeLa lysates
# T5 construct: HEK-293 (Panel d) or HeLa (Panel e) cells were lysed in M-PER buffer; endogenous in cells; host or cells: HEK-293; HeLa
# Excerpt: Number of GFP::LGG-1 containing puncta was quantitated using ImageJ. Bars indicate the mean. […] ImageJ was used to quantify the mTOR/GAPDH and ATP5B/GAPDH ratios.
# Complex IV = tested on: T6, Complex IV; experiment: Complex IV activity assay (MitoTox OXPHOS kit); assay type: biochemical, bovine; conditions: relative to vehicle (H2O)
# T6 construct: from bovine heart mitochondria; purchased Abcam ab109906; host or cells: bovine heart mitochondria
# lactate dehydrogenase = experiment: Coupling-enzyme control of SMP ATPase assay; assay type: biochemical; conditions: up to 10 mM, external ADP added
# Method: (§1) The SMP ATPase activity was assayed using the Complex V Activity Buffer as above. The production of ADP is coupled to the oxidation of NADH to NAD^+ through pyruvate kinase and lactate dehydrogenase. […] The absorbance decrease of NADH at 340 nm correlates to ATPase activity.
# pyruvate kinase = experiment: Coupling-enzyme control of SMP ATPase assay; assay type: biochemical; conditions: up to 10 mM, external ADP added
# Method: as §1
# C. elegans [7] = experiment: Assay for ATP levels in C. elegans; assay type: in vivo, Caenorhabditis elegans; conditions: 8 mM; day 2, P=0.969; day 8, P=0.012
# Method: Assay for ATP levels in C. elegans. […] ATP levels were normalized to number of worms. Statistical analysis was performed using Microsoft Excel (t-test, two-tailed, two-sample unequal variance).
# C. elegans [8] = experiment: Oxygen consumption rate in living C. elegans; assay type: in vivo, Caenorhabditis elegans; conditions: worms, 8 mM, day 2 of adulthood
# Method: OCR was assessed on day 2 of adulthood. […] Oxygen consumption rates were measured 7 times under basal conditions and normalized to the number of worms counted per well. The experiment was repeated twice. Statistical analysis was performed using Microsoft Excel (t-test, two-tailed, two-sample unequal variance).
smiles,measurement,setting,value
"CCCCCCCCOC(=O)C(=O)CCC(=O)O [octyl α-KG, octyl α-ketoglutarate]",reversibility of ATP synthase inhibition,"Complex V; α-KG released from octyl α-KG, not shown",reversible
same,ATP levels,WI-38 cells,reduced
same,ATP content,U87 cells [1],decreased
same,oxygen consumption rates,mammalian cells,Decreased
same,apparent Vmax of ATP synthase,"ATP synthase; 200 μM octyl α-KG, octanol vehicle 53.9",26.7
same,mode of ATP synthase inhibition,ATP synthase; α-KG released from octyl α-KG,uncompetitive inhibition
same,phosphorylation of S6K (T389),mTOR [2],decreased
same,phosphorylation of mTOR substrates,mTOR [2],decreased
same,P-AMPK (T172),AMPK,increased
same,ISO- and PE-induced overexpression of ANF and BNP,[3],suppressed
same,ISO-induced hypertrophy,"[3]; 1 mM isoproterenol, 48 hours",completely abolished
same,state 3 respiration of heart mitochondria,"[4]; mice fed 1.5 mg/g body weight in chow for one week, versus octanol control mice",lower
same,physiological or behavioral abnormality,"[4]; mice, 1.5 mg/g body weight in chow, after 5 days feeding",no abnormality
same,cardiac ejection fraction,DBA2/J female mice,53.8%±2.3
same,viability upon glucose starvation,U87 cells [5]; 400 μM and 800 μM,decreased
same,growth rate,"U87 cells [5]; glucose medium, to a lesser extent, not shown",reduced
same,growth rate,"U87 cells [5]; glucose-free medium, 400 μM and 800 μM",decreased growth rate
"O=C(O)CCC(=O)C(=O)O [α-KG, α-ketoglutarate]",binding to ATP5B by DARTS,ATP5B,binding specifically
same,ATP-2 protein protection from Pronase digestion,ATP-2,protection
same,binding to TOR by DARTS,mTOR [6],does not bind
same,activity of Complex V,Complex V; bovine heart mitochondria,inhibits
same,Complex IV activity,Complex IV,does not affect
same,activity of lactate dehydrogenase,lactate dehydrogenase,did not affect
same,activity of pyruvate kinase,pyruvate kinase,did not affect
same,ATP levels,C. elegans [7],reduced
same,oxygen consumption rates,C. elegans [8],Decreased
